Structures are written as SMILES. Like-named read-outs stand apart in the source and are kept apart here.

This test deals with recombinant eIF4E (Homo sapiens (Human), UniProt P06730). Put plainly: Fluorescence polarization competition assay for eIF4E binding potency. A digest of the protocol:
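FP readout; IC50 fit from 8-point, 3-fold series. 75 nM eIF4E + 20 nM ATTO-550-labelled m7GDP probe, Tris pH 7.5/NaCl/DTT/Tween buffer, 1% DMSO final. 30 min RT equilibration, light-protected.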
(In general: Polarisation of emitted light reports the rotation of a fluorescent probe.)

Setting [1] is: inhibition of eIF4E/EDA-m7GDP-ATTO-550 binding, calculated IC50 values, Table 4B, read-out: IC50.
Setting [2] is: fluorescence polarization competition, 75 nM recombinant eIF4E, 20 nM EDA-m7GDP-ATTO-550, IC50 class, read-out: elF4E FP.
Where [3] appears, read: inhibition of eIF4E/EDA-m7GDP-ATTO-550 binding by 50%, Table 4B calculated values, read-out: IC50.

Chain of recombinant eIF4E (P06730 whole entry): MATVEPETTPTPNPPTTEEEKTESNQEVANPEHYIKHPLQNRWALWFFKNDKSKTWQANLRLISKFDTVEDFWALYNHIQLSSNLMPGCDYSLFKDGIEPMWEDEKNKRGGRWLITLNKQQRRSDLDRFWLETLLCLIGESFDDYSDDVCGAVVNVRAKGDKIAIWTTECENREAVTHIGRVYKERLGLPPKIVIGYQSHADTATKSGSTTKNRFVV

For the compound `Cc1nc2cnc(N3C[C@@H](C)N(CC(F)F)[C@@H](C)C3)c(C#N)c2c(=O)n1CCOc1ccc(Cl)cc1-c1ccnc2c(C(=O)O)csc12` [compound 1350], the IC50 under setting [1] is 35.1 nM.

For the compound `Cc1nc2ccc(Cl)c(C#N)c2c(=O)n1CCOc1ccc(Cl)cc1-c1ccnc2c(C(=O)O)csc12` [compound 244], the IC50 by setting is: under setting [2], less than 50 nM; under setting [3], 31.2 nM.

With `C#Cc1sc2c(-c3cc(Cl)ccc3OCCn3c(C)nc4cc(C(F)(F)F)cc(C#N)c4c3=O)ccnc2c1C(=O)O` [compound 267], the IC50 is, setting by setting: under setting [2], 50 to 1000 nM; under setting [3], 74.1 nM.

With `Cc1nc2c(F)cc(C(F)F)c(C#N)c2c(=O)n1CCOc1cc(F)c(Cl)cc1-c1ccnc2c(C(=O)O)csc12` [compound 504], the IC50 under setting [2] was less than 50 nM and the IC50 under setting [3] was 22.9 nM.

Regarding `Cc1nc2cc(C(F)(F)F)c(N3CCN(CCC(F)(F)F)CC3)c(C#N)c2c(=O)n1CCCc1ccc(Cl)cc1-c1ccnc2c(C(=O)O)csc12` [compound 1156], the IC50 by setting is: under setting [2], less than 50 nM; under setting [3], 35.1 nM.

For `Cc1nc2cc(C(F)(F)F)c(N3CC4(C3)CN(C3CC3)C4)c(C#N)c2c(=O)n1CCOc1ccc(Cl)cc1-c1ccnc2c(C(=O)NS(C)(=O)=O)csc12` [compound 1930], under setting [1], the IC50 is 4.81 nM.

Consider `Cc1cc(-c2cc(Cl)ccc2OCCn2c(C)nc3cc(C(F)(F)F)c(-c4cnn(C)c4C)c(C#N)c3c2=O)c2scc(C(=O)O)c2n1` [compound 1032], for which the IC50 is, setting by setting: under setting [2], less than 50 nM; under setting [3], 6.2 nM.

For the compound `Cc1cc(-c2cc(Cl)ccc2OCCn2c(C)nc3cnc(C4CC4)c(C#N)c3c2=O)c2scc(C(=O)NS(C)(=O)=O)c2n1` [compound 385], the IC50 was less than 50 nM under setting [2] and 39.5 nM under setting [3].

`Cc1nc2cc(CN(C)C)c(OC(F)F)c(C#N)c2c(=O)n1CC#Cc1ccc(Cl)cc1-c1ccnc2c(C(=O)O)csc12` [compound 626]: the IC50 reads like this: under setting [2], less than 50 nM; under setting [3], 10.4 nM.

For `C#Cc1c(C(=O)O)cccc1-c1cc(Cl)ccc1OCCn1c(C(F)F)nc2cccc(C#N)c2c1=O` [compound 165], the IC50 under setting [2] was 50 to 1000 nM and the IC50 under setting [3] is 106 nM.

For the compound `Cc1nc2cnc(C#N)cc2c(=O)n1CC#Cc1ccc(Cl)cc1-c1ccnc2c(C(=O)O)csc12` [compound 625], the IC50 was 50 to 1000 nM under setting [2] and 78 nM under setting [3].

Consider `Cc1cc(-c2cc(Cl)ccc2OCCn2c(C)nc3cc(C(F)(F)F)c(CC4CN(C)C4)c(C#N)c3c2=O)c2scc(C(=O)O)c2n1` [compound 425], for which the IC50 runs as follows: under setting [2], less than 50 nM; under setting [3], 11.2 nM.

For the compound `Cc1nc2cc(C(F)(F)F)c(N3CCN(C)CC3)c(C#N)c2c(=O)n1CCOc1ccc(Cl)cc1` [compound 808], the IC50 runs as follows: under setting [2], 50 to 1000 nM; under setting [3], 52.4 nM.

Take `Cc1c(CC#Cc2ccc(Cl)cc2-c2ccnc3c(C(=O)O)csc23)c(=O)c2c(C#N)c(Cl)c(C(F)(F)F)cc2n1C` [compound 669]: the IC50 under setting [2] was less than 50 nM and the IC50 under setting [3] is 36.4 nM.

Regarding `Cc1ccc(-c2cc(Cl)ccc2OCCn2c(C)nc3cnc(C4CC4)c(C#N)c3c2=O)c2scc(C(=O)O)c12` [compound 794], the IC50 under setting [2] is less than 50 nM and the IC50 under setting [3] is 3.41 nM.

Turning to `Cc1ccc(C#N)c2c(=O)n(CCOc3ccc(Cl)cc3-c3ccnc4c(C(=O)O)csc34)c(C)nc12` [compound 574], the IC50 was 50 to 1000 nM under setting [2] and 57.5 nM under setting [3].

Regarding `Cc1cc(-c2cc(Cl)ccc2OCCn2c(C)nc3cc(Cl)c(-c4cccnc4)c(C#N)c3c2=O)c2scc(C(=O)O)c2n1` [compound 653], the IC50 was less than 50 nM under setting [2] and 22.7 nM under setting [3].

Take `O=C(O)c1cccc(-c2cc(Cl)ccc2OCCn2cnc3nnccc3c2=O)c1` [compound 18]: the IC50 is, setting by setting: under setting [2], 50 to 1000 nM; under setting [3], 832 nM.

As to `Cc1nc2cnc(N(C)C3CCN([C@@H]4C[C@H]4C(F)(F)F)CC3)c(C#N)c2c(=O)n1CC#Cc1ccc(Cl)cc1-c1ccnc2c(C(=O)O)csc12` [compound 1175], the IC50 under setting [2] was less than 50 nM and the IC50 under setting [3] is 22.1 nM.
